Measurements published in patent US20120264231A1, “ASSAY FOR ORAI CALCIUM CHANNEL REGULATORS” (IMMUNE DISEASE INSTITUTE, INC., priority 2009, published 2012).

What was measured:
ORAI1 = ORAI1 (Homo sapiens, UniProt Q96D31); assay: Fura-2 Ca^2+ flux assay, sec6-4 secretory vesicles with ORAI1; assay type: biochemical; parameters: the ORAI functional fragment is ORAI1 (65-301), ORAI1 (65-87), or full length ORAI1; made in house; host or cells: S. cerevisiae NY17 (sec6-4), isolated secretory vesicles, vector pBEVY-GU
Experimental: (§1) It was next asked whether STIM-ORAI protein-protein interaction is sufficient to open the ORAI Ca^2+ channel. Vesicles obtained from S cerevisiae expressing ORAI were incubated under conditions where Fura-2 was the principal Ca^2+ buffer in the extravesicular solution in order to monitor Ca^2+ efflux (Meyer, T., et al., Biochemistry 29, 32-37 (1990)).
Vesicles carrying ORAI 1 were isolated from S cerevisiae strain NY1 7 according to a standard protocol (Coury, L. A., et al., Methods Enzymol 306, 169-186 (1999); Nakamoto, R. K., et al., J Biol Chem 266, 7940-7949 (1991)). Efflux of Ca^2+ elicited by STIM1^CT fragments was detected by suspending the vesicles in a buffer containing Fura-2 as principal Ca^2+ buffer, and monitoring the Fura-2 fluorescence excitation spectrum (Meyer, T., et al., Biochemistry 29, 32-37 (1990)). As a complementary approach, ORAI 1 was coexpressed with a Ca^2+ sensor cameleon D3 cpV or cameleon D4 cpV53 that was targeted to the vesicles, and changes in intravesicular [Ca^2+] were detected as changes in FRET between CFP and YFP of the sensor.
S cerevisiae strain NY17 featuring the temperature-sensitive sec6-4 mutation was used for protein expression and purification of secretory vesicles as described (Nakamoto, R. K., et al., J Biol Chem 266, 7940-7949 (1991); Coury, L. A., et al., Methods Enzymol 306, 169-186 (1999)). Cells were grown to midlog phase at 25° C. in uracil-deficient synthetic complete medium containing glucose, which was subsequently exchanged for galactose to induce transgene expression over a period of 8 hours. The temperature was then switched to 37° C. for 3 hours to force intracellular accumulation of secretory vesicles. Cells were collected by centrifugation at 4,000×g for 5 min at 4° C., washed once in ice-cold water, resuspended at a concentration of 50-60 OD600 units/mL in 10 mM DTT, 100 mM Tris pH 9.4, and shaken gently at room temperature for 10 min. Cells were pelleted and resuspended at 50-60 OD600 units/mL in spheroplast buffer (1.4 M sorbitol, 50 mM K2HPO4 pH 7.5, 10 mM NaN3, 40 mM β-mercaptoethanol) containing Zymolyase 20T (50 units per g of yeast wet weight) and incubated for up to 1 h at 37° C. Spheroplasts were harvested at 3,000×g for 5 min at 4° C., resuspended in spheroplast buffer containing 10 mM MgCl2 and 1 mg/ml Concanavalin A at a density corresponding to 50 OD600 units/mL of the starting culture, and gently shaken at 4° C. for 15 min. […] Myc-tagged ORAI1 was detected in Western blots using the murine anti-Myc monoclonal antibody 9E10. […]

[1] = Fura-2 Ca^2+ flux assay, control vesicles; assay type: biochemical, S cerevisiae; conditions: STIM 1 cytoplasmic fragments 2 μM
Experimental: as §1
S cerevisiae strain NY17 featuring the temperature-sensitive sec6-4 mutation was used for protein expression and purification of secretory vesicles as described (Nakamoto, R. K., et al., J Biol Chem 266, 7940-7949 (1991); Coury, L. A., et al., Methods Enzymol 306, 169-186 (1999)). Cells were grown to midlog phase at 25° C. in uracil-deficient synthetic complete medium containing glucose, which was subsequently exchanged for galactose to induce transgene expression over a period of 8 hours. The temperature was then switched to 37° C. for 3 hours to force intracellular accumulation of secretory vesicles. […] Myc-tagged ORAI1 was detected in Western blots using the murine anti-Myc monoclonal antibody 9E10. […]
Fura-2 spectra were recorded at ambient temperature, 22-25° C., in 20 mM Tris pH 7.4, 100 mM KCl, containing 10 μM metal-free Fura-2. Excitation spectra were recorded by scanning from 300-450 nm while monitoring emission at 510 nm, using a 2-4 nm slitwidth for both excitation and emission. […]

[2] = STIM 1 cytoplasmic fragments 2 μM

Chain of ORAI1 (Q96D31 2-301): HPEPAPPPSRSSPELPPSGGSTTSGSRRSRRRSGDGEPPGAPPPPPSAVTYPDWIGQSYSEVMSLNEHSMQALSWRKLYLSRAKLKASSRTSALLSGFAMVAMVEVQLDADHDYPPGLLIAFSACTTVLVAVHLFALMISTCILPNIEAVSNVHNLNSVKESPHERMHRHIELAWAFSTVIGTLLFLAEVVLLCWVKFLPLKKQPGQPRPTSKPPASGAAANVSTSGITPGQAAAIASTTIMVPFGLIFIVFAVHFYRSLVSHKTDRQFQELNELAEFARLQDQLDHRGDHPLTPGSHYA

Compound | Ca^2+ efflux from vesicles with ORAI (Fura-2 excitation spectrum) (ORAI1; ionomycin 20 μM) | Ca^2+ efflux from vesicles with ORAI (Fura-2 excitation spectrum) (ORAI1; [2]) | Ca^2+ release from control vesicles (Fura-2) [1]
C[C@H](CCC(=O)O)C[C@H](C)C[C@H](C)C(=O)/C=C(\O)[C@H](C)C[C@H](C)C/C=C/[C@@H](C)[C@@H](O)[C@@H](C)[C@@H](O)C[C@@H]1CC[C@@](C)([C@H]2CC[C@@](C)([C@@H](C)O)O2)O1 [ionomycin, reference compound] | release of Ca^2+ to the extravesicular solution |  | 
STIM1^CT: cytoplasmic region of STIM1, mouse residues 233-685, His-tagged recombinant protein expressed in E coli |  | elicited efflux of Ca^2+ | neither STIM 1 fragment was effective
STIM1 (233-498): truncated mouse STIM1 cytoplasmic fragment, residues 233-498, His-tagged recombinant protein |  | elicited efflux of Ca^2+ | neither STIM 1 fragment was effective
STIM1 (233-463): truncated mouse STIM1 cytoplasmic fragment, residues 233-463, His-tagged recombinant protein |  | had little effect | 
